Measurements: patent publication US20220142884A1, “TREATMENT OF AGING OR UV-DAMAGED SKIN” (Echo Pharmaceuticals B.V., priority 2019, published 2022)

Legend:
[1] = system: UV-B induced secretion of interleukin 8 (IL-8); test: UV-B induced secretion of IL-8 in HaCaT cells (ELISA); format: cell-based, Human; conditions: UV-B as in Example 1, vs stimulated controls, component concentrations (μg/ml) per sample
Description: This assay was conducted on Human Epidermal Keratinocyte cells (HaCaT) and was carried out in triplicates. After reaching the required confluency, the cells were treated with pre-prepared growth medium containing the test component(s) at a final volume of 200 μL/well. Growth medium without test component was used to prepare the blank samples. The cells were incubated for 24 hr. Then, the medium was replaced with PBS (containing the test component) and the cells were subjected to 25 mJ/cm^2 (Table 2) or 12.5 mJ/cm^2 (Table 3) UV-B irradiation. The flux was determined by an external […]. Immediately after irradiation, the PBS was aspirated, and the cells were further incubated with freshly prepared media incubated for 24 hr. at 37° C. with 5% CO2. After incubation, the conditioned medium of the different treatment groups was collected under standardized conditions and centrifuged at 250×g for 5 min to remove particulates. Clear supernatants were frozen at -70° C. until analyses. […] The percentage inhibition was determined by comparing IL-8 levels in the test samples with the IL-8 level in the stimulated controls.

[2] = system: UV-B induced secretion of prostaglandin E2 (PGE2); test: UV-B induced secretion of PGE2 in keratinocyte HaCaT cells (ELISA); format: cell-based, Human; conditions: component concentrations (μg/ml) per sample
Description: This assay was conducted on Human Epidermal Keratinocyte cells (HaCaT) and was carried out in triplicates. After reaching the required confluency, the cells were treated with pre-prepared growth medium containing the test component(s) at a final volume of 200 μL/well. Growth medium without test component was used to prepare the blank samples. The cells were incubated for 24 hr. Then, the medium was replaced with PBS (containing the test component) and the cells were subjected to 25 mJ/cm^2 (Table 2) or 12.5 mJ/cm^2 (Table 3) UV-B irradiation. The flux was determined by an external […]. Immediately after irradiation, the PBS was aspirated, and the cells were further incubated with freshly prepared media incubated for 24 hr. at 37° C. with 5% CO2. After incubation, the conditioned medium of the different treatment groups was collected under standardized conditions and centrifuged at 250×g for 5 min to remove particulates. Clear supernatants were frozen at -70° C. until analyses. The UVB-induced cytokines secretion of PGE2 was measured by commercial ELISA, according to the manufacturer's instructions. The percentage inhibition was determined by comparing PGE2 levels in the test samples with PGE2 level in the stimulated controls. Example 1 was repeated in HaCaT cells, using the lower UV-B dosage (12.5 mJ/cm^2 flux). In addition, an extra test component was used (docosahexaenoic acid).

collagen production = conditions: skin organ cultures, inhibition of PGE2 synthesis; cited from earlier work
[3] = 25 mJ/cm^2 UV-B, 24 hr pre-incubation, vs stimulated controls
[4] = lower UV-B dosage 12.5 mJ/cm^2, vs stimulated controls

Structure (SMILES)	Inhibition (%) IL-8 [1] [%]	Inhibition (%) PGE2 [2, 3] [%]	Inhibition (%) PGE2 [2, 4] [%]	collagen production (collagen production)
C=C(C)[C@@H]1CCC(C)=C[C@H]1c1c(O)cc(CCCCC)cc1O [Sample 1, Cannabidiol]	−1	0	−11	–
C=C(C)[C@@H]1CCC(C)=C[C@H]1c1c(O)cc(CCCCC)cc1O [Sample 2, Cannabidiol]	3	17	−8	–
CC/C=C\C/C=C\C/C=C\C/C=C\C/C=C\CCCC(=O)O [Sample 3, eicosapentaenoic acid]	−6	−11	−3	–
CC/C=C\C/C=C\C/C=C\C/C=C\C/C=C\CCCC(=O)O [Sample 4, eicosapentaenoic acid]	−16	1	5	–
O=C(O)Cc1ccccc1Nc1c(Cl)cccc1Cl [diclofenac]	–	–	–	enhanced collagen production
